# Laboratory results reported in ChEMBL document CHEMBL1201862, “PubChem BioAssay data set” (2004).
# Activity calls are given as the source filed them.
# Legend:
# [1] = inhibitors of firefly luciferase expression or activity, dose response, H4 neuroglioma cells, luminescence (AID 1990); assay type: functional, cell-based
# [2] = Luminescence Cell-Based Dose Response HTS to Identify Inhibitors of 5'UTR Stem-Loop Driven Prion Protein mRNA Translation in H4 Neuroglioblastoma Cells. [Related pubchem assays: 1827 (Project Summary), 1813 (Primary HTS)]; assay type: functional
# [3] = inhibitors of SNCA 5'UTR-driven reporter translation, confirmation, H4 neuroglioma cells, luminescence (AID 1988); assay type: functional, cell-based
# [4] = molecular target: G-protein coupled receptor 55 (Homo sapiens, UniProt Q9Y2T6); assay: GPR55 agonists via beta-arrestin recruitment, primary screen, imaging, U2OS cells, beta-arrestin-GFP redistribution (AID 1961); assay type: functional
# Chain of G-protein coupled receptor 55 (Q9Y2T6 whole entry): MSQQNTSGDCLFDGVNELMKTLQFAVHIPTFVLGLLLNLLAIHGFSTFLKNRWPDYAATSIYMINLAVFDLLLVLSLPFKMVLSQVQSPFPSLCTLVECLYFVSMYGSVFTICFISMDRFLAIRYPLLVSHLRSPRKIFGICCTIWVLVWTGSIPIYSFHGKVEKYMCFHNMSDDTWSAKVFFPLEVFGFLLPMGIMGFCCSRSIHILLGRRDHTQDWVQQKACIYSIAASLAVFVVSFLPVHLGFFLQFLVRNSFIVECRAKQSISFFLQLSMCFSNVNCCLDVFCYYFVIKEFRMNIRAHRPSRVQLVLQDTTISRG
# INS1 = assay: beta cell apoptosis inhibitors, cytokine rescue, dose response, luminescence, retest (AID 449756); assay type: functional, cell-based; details: Rattus norvegicus;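 also: cell death triggered by IL-1 beta plus TNF-alpha plus IFN-gamma mixture; protective hits raise ATP signal compared with cytokine alone wells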
# [5] = HEK293T cell cytotoxicity, dose response, cytotoxicity control for HIV Vif inhibitor project, cherry-picks (AID 652208); assay type: functional, cell-based
# [6] = molecular target: SWI/SNF-related matrix-associated actin-dependent regulator of chromatin subfamily A member 2 (Homo sapiens, UniProt P51531); assay: Luminescence-based cell-based high throughput dose response assay to identify activators of the function of SWI/SNF related, matrix associated, actin dependent regulator of chromatin, subfamily a, member 2 (SMARCA2, BRM).; assay type: functional
# Chain of SWI/SNF-related matrix-associated actin-dependent regulator of chromatin subfamily A member 2 (P51531 whole entry): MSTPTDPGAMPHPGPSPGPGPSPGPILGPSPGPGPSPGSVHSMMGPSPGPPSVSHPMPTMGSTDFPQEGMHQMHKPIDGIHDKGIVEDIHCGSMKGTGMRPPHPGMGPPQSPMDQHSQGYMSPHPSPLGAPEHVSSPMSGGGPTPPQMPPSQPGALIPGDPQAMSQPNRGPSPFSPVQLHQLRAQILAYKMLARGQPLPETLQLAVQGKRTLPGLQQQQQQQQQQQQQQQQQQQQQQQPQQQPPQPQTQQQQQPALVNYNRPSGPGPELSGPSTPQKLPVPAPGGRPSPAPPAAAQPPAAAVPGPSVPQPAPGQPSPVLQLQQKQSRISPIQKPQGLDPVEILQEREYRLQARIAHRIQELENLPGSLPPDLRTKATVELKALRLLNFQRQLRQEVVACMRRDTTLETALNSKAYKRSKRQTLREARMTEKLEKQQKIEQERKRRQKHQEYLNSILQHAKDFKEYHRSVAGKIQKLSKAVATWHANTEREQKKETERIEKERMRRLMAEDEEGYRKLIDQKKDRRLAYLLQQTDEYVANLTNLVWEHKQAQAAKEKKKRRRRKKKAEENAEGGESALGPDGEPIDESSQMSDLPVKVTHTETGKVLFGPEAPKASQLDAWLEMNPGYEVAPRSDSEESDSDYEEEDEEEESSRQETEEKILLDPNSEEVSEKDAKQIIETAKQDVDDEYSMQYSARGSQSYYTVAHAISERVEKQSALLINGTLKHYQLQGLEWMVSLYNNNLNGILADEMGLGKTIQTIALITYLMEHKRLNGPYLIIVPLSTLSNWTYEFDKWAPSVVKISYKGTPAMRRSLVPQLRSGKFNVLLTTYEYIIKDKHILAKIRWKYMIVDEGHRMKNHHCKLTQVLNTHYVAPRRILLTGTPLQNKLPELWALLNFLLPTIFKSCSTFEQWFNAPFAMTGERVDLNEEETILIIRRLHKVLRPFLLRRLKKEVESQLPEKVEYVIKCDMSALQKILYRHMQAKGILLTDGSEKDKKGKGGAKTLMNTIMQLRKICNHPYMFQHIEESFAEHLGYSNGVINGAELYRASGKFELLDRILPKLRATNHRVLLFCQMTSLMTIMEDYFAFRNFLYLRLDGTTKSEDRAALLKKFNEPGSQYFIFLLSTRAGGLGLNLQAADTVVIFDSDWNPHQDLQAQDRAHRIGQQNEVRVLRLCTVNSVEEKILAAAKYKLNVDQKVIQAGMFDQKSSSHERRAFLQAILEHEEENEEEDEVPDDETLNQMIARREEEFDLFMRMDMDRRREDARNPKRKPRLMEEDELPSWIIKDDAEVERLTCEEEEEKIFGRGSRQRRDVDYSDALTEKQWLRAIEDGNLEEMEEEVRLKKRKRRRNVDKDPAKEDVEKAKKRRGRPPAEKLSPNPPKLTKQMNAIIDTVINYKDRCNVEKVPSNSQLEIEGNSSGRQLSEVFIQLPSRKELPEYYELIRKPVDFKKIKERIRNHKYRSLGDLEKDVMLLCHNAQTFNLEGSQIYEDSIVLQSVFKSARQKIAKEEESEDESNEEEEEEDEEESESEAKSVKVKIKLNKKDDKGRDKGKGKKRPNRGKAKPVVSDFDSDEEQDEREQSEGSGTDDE
# [7] = Counterscreen for activators of the function of SWI/SNF related, matrix associated, actin dependent regulator of chromatin, subfamily a, member 2 (SMARCA2, BRM): Luminescence-based cell-based high throughput dose response assay to identify non-selective compounds using the VP16 reporter assay.; assay type: functional
# [8] = human group III sPLA2 inhibitors, dose response, biochemical, QFRET, IC50 (AID 743457);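 also: green fluorescence rise as the enzyme cleaves BODIPY PC-A2 in liposomes; potency for inhibition of the enzyme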
# [9] = molecular target: Nuclear receptor subfamily 5 group A member 2 (Homo sapiens, UniProt O00482); assay type: functional, cell-based;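 also: HEK293T cells transfected with LRH-1 and a StAR promoter luciferase reporter; potency for inhibitors that lower LRH-1 driven reporter light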
# Chain of Nuclear receptor subfamily 5 group A member 2 (O00482 whole entry): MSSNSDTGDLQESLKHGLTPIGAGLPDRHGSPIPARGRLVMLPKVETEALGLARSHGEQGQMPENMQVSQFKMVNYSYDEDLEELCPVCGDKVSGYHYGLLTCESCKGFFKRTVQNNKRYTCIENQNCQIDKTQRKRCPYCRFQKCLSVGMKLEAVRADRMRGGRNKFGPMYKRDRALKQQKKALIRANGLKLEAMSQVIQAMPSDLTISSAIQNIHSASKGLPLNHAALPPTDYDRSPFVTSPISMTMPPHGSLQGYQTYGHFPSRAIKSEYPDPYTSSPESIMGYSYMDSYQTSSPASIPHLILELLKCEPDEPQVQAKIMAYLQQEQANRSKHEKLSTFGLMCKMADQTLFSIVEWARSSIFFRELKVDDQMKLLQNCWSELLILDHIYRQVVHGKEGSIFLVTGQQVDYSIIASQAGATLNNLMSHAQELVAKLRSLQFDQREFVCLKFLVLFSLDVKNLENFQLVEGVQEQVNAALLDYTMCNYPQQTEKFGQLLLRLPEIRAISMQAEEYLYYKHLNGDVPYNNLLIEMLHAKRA
# Steroidogenic factor 1 = Steroidogenic factor 1 (Homo sapiens, UniProt Q13285); assay: Counterscreen for inverse agonists of the liver receptor homolog-1 (LRH-1; NR5A2): Luminescence-based cell-based high throughput dose response assay to identify inverse agonists of the Steroidogenic Factor 1 Nuclear Receptor (SF1; NR5A1).; assay type: functional
# [10] = StAR promoter reporter inhibition counter-screen, dose response, counter-screen for LRH-1 inverse agonist project, cell-based, luminescence, luciferase reporter (AID 651969); assay type: functional
# Protein Wnt-3a [11] = molecular target: T1, Protein Wnt-3a (Mus musculus, UniProt P27467); assay: Wnt3a-driven reporter signaling inhibition, dose response, selectivity assay for Gli-SUFU antagonist project, Wnt-LIGHT cells, luminescence (AID 651570); assay type: functional; details: read-out: IC50_Mean;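 also: Wnt-LIGHT reporter cells stimulated with conditioned medium from Wnt3a-producing cells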
# T1 sequence (P27467 whole entry): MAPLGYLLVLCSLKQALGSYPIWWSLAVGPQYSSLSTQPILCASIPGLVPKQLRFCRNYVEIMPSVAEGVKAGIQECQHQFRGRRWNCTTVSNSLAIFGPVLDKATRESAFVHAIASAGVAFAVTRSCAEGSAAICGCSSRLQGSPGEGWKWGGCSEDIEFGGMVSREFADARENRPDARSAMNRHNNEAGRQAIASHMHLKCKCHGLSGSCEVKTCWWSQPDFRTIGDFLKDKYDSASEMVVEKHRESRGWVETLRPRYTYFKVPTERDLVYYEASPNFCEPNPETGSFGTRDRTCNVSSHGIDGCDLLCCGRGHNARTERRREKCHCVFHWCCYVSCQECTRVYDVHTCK
# [12] = molecular target: Matrix metalloproteinase-14 (Homo sapiens, UniProt P50281); assay: Dose Response confirmation of uHTS hits for a small molecule inhibitors of MT1-MMP activation in a fluorescence assay set 1.; assay type: functional
# [13] = molecular target: T2, Microphthalmia-associated transcription factor (Homo sapiens, UniProt O75030); assay: TRPM1 promoter luciferase signal decrease, dose response, MITF inhibitor project, cell-based, SK-MEL-5, cherry-picked, set 3 (AID 493073); assay type: functional
# T2 sequence (O75030 whole entry): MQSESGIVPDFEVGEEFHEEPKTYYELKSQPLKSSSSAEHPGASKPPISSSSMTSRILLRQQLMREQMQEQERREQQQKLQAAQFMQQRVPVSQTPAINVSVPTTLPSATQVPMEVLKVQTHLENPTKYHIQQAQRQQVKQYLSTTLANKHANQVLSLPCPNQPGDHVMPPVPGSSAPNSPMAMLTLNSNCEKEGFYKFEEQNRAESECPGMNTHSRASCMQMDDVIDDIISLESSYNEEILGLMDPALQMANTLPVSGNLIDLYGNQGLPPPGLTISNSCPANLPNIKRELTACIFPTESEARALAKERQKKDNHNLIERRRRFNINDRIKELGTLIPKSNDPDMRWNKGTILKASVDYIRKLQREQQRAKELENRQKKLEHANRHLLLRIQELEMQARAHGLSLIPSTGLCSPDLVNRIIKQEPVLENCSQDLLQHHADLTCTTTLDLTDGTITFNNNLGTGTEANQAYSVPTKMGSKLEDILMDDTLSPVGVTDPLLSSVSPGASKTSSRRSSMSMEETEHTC
# X-box-binding protein 1 = molecular target: T3, X-box-binding protein 1 (Homo sapiens, UniProt P17861); assay type: functional, Cricetulus griseus;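 also: confirmatory dose-response counter-screen serving a CHOP assay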
# T3 sequence (P17861 whole entry): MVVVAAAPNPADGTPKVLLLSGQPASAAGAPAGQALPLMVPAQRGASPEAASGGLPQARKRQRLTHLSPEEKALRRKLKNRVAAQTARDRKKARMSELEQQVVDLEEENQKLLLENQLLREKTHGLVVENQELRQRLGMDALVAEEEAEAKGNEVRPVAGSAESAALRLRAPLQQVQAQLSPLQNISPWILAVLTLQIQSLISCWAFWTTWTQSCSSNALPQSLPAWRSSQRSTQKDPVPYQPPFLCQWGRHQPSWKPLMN
# [14] = molecular target: Heat shock protein HSP 90-alpha (Homo sapiens, UniProt P07900); assay type: functional, organism-based
# [15] = Fluorescence-based cell-based high throughput dose response assay for inhibitors of the interaction of nucleotide-binding oligomerization domain containing 2 (NOD2) and the receptor-interacting serine-threonine kinase 2 (RIPK2).; assay type: functional; details: Homo sapiens
# Beta Lactamase = Beta Lactamase (Pseudomonas aeruginosa, UniProt Q932Y6); assay: beta-lactamase reporter inhibitor potency, dose response, artefact control for NOD2-RIPK2 interaction inhibitor project, BLA reporter cells, FRET fluorescence (AID 651552); assay type: functional, cell-based
# Chain of Beta Lactamase (Q932Y6 whole entry): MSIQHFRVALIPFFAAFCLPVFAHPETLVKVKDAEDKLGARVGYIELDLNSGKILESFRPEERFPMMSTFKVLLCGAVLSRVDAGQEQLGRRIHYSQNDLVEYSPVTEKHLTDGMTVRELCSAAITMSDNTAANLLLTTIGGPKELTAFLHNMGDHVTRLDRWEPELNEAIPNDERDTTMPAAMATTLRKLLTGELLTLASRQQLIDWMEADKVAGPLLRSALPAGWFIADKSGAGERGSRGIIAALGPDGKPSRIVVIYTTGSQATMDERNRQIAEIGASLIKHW
# Beta-galactosidase = Beta-galactosidase (Escherichia coli, UniProt Q8VNN2); assay: Dose response counterscreen for EBI2 assay utilizing the enzyme, b-galactosidase.; assay type: functional
# Chain of Beta-galactosidase (Q8VNN2 whole entry): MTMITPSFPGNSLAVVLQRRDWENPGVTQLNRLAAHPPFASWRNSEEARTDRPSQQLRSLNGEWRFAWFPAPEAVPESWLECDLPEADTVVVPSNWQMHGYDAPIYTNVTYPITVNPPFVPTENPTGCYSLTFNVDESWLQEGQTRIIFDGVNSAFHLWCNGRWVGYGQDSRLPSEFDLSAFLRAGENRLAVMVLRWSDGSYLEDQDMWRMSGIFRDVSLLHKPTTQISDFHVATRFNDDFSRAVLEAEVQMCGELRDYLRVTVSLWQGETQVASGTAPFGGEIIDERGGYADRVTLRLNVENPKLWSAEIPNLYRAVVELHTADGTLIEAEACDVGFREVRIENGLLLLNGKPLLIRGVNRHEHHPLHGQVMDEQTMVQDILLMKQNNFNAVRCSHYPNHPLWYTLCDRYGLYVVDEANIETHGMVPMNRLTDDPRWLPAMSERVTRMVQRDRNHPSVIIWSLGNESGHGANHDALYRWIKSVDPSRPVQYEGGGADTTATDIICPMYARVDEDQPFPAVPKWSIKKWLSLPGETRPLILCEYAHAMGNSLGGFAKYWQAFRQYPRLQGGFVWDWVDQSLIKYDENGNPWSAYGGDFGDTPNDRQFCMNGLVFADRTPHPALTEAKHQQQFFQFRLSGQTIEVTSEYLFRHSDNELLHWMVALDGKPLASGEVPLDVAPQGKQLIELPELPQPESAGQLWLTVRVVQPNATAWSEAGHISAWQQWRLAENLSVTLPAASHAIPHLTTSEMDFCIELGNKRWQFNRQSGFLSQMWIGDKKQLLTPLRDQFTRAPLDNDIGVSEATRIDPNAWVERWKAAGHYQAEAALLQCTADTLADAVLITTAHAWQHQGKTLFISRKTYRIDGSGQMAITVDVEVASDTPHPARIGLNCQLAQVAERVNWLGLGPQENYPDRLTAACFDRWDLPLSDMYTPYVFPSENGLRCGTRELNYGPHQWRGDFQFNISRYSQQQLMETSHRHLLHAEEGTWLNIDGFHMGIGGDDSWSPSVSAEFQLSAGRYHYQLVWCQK
# [16] = Late stage assay provider results from the probe development effort to identify inhibitors of the Plasmodium falciparum M17 Leucine Aminopeptidase (M17LAP): radiolabel-based cell-based dose response assay to identify compounds that inhibit P. falciparum growth in RBCs Set 2.; assay type: functional
# [17] = molecular target: T4, Small ubiquitin-related modifier 1 (Homo sapiens, UniProt P63165); assay: inhibitors of SUMO1 peptide binding, dose response, biochemical, fluorescence polarization, uHTS hits (AID 624382); assay type: functional; details: read-out: IC50_Mean
# T4 sequence (P63165 whole entry): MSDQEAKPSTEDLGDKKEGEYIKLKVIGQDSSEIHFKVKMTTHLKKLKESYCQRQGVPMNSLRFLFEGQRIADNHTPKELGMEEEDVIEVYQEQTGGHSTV
# [18] = molecular target: T5, Low molecular weight phosphotyrosine protein phosphatase (Homo sapiens, UniProt P24666); assay type: functional; details: read-out: IC50_Mean
# T5 sequence (P24666 whole entry): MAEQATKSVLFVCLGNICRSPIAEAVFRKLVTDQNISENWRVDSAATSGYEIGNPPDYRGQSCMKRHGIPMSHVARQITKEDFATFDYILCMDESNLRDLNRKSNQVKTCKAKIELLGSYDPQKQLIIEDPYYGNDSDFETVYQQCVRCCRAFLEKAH
# [19] = molecular target: T4, Small ubiquitin-related modifier 1; assay: inhibitors of SUMO1 partner interactions, dose response, biochemical, FRET (AID 624383); assay type: functional; details: read-out: IC50_Mean
# [20] = molecular target: T5, Low molecular weight phosphotyrosine protein phosphatase; assay type: functional; details: read-out: IC50_Mean; remark: listed apart in the source
# [21] = NIH/3T3 fibroblast cytotoxicity, dose response, cytotoxicity control for T. cruzi growth inhibitor project, cell-based, cherry-pick samples, set 2 (AID 651817); assay type: functional; details: NIH3T3
# [22] = intracellular Trypanosoma cruzi inhibitors in host cells – cell-based, plate reader, cherry-pick samples, set 3, dose response (AID 651818); assay type: functional;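 also: compounds incubated with infected cells for about four days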
# Protein Wnt-3a [23] = molecular target: T1, Protein Wnt-3a; assay: SAR analysis of small molecule antagonists of Gli-SUFU in a Wnt3a luminescent reporter assay.; assay type: functional
# [24] = T. cruzi intracellular amastigote growth inhibition, dose response, imaging, CA-I/72 strain, bovine embryo skeletal muscle, dry powder (AID 651885); assay type: functional, cell-based
# Large T antigen = Large T antigen (Simian virus 40, UniProt P03070); assay type: functional, Betapolyomavirus macacae;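 also: Confirmatory-stage PubChem screen for compounds that inhibit SV40 T antigen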
# [25] = molecular target: T6, Sentrin-specific protease 1 (Homo sapiens, UniProt Q9P0U3); assay: potency of human SENP1 inhibitors, dose response, biochemical, kinetic FRET (AID 651697); assay type: functional; details: read-out: IC50_Mean
# T6 sequence (Q9P0U3 whole entry, the tested form may be a part): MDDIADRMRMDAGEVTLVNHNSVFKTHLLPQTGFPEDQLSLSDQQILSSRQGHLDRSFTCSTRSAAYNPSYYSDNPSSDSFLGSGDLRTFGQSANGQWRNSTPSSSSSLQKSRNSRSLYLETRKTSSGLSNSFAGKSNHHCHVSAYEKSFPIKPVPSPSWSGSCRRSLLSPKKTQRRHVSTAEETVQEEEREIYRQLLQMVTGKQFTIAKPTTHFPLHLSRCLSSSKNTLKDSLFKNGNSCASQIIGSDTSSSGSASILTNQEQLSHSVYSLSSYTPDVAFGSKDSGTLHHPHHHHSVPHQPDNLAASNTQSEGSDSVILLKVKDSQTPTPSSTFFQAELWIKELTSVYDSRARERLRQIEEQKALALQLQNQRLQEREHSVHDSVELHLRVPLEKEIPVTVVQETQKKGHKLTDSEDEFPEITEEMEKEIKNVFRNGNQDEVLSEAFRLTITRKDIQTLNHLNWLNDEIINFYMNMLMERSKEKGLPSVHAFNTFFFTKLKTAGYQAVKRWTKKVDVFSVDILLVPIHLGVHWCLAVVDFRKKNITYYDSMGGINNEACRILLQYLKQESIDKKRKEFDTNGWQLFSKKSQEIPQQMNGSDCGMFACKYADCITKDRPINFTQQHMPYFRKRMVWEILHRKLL
# [26] = molecular target: T6, Sentrin-specific protease 1; assay: Dose response confirmation of small molecule inhibitors of the catalytic domain of the SUMO protease, SENP1 in a FRET assay.; assay type: functional; details: read-out: IC50_Mean
# [27] = molecular target: T7, Rac GTPase-activating protein 1 (Homo sapiens, UniProt Q9H0H5); assay: MgcRacGAP GTPase-activating activity inhibitors, confirmation, biochemical, ADP Hunter fluorescence, primary and confirmatory (AID 624330); assay type: functional
# T7 sequence (Q9H0H5 whole entry): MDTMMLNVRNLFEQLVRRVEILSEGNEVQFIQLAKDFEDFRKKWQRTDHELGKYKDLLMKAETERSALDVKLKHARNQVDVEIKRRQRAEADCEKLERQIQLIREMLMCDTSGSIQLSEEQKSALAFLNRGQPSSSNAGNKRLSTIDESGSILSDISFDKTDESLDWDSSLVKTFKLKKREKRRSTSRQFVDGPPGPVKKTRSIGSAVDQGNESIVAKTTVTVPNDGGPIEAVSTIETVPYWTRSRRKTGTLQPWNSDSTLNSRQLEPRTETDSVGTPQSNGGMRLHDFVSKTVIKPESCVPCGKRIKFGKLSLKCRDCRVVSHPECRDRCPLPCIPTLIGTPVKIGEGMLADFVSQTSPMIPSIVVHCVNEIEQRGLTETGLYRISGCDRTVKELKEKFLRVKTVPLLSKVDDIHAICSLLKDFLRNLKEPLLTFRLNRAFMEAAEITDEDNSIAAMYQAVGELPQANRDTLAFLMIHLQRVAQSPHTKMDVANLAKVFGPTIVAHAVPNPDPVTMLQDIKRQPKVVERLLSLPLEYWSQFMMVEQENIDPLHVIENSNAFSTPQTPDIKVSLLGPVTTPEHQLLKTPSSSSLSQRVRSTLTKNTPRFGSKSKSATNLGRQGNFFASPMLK
smiles,measurement,setting,value
Nc1c(C(=O)Nc2ccc(S(=O)(=O)N3CCCC3)cc2)sc2nc3ccc(OC(F)(F)F)cc3cc12,EC50,[1],5.71 µM (inconclusive)
same,EC50,[2],4.12 µM (active)
same,EC50,[3],2.05 µM (active)
same,EC50,[4],3.77 µM (active)
same,AC50,INS1,3.5 µM (active)
same,AC50,[5],15.7 µM (active)
Cc1ccc2nc(O)c3cc(C(=O)N(C)Cc4ccco4)sc3c2c1,EC50,[6],> 91.2 µM (inactive)
same,EC50,[7],> 91.2 µM (inactive)
COc1ccc(NC(=O)NNC(=O)c2ccc3ccccc3c2O)c(OC)c1,IC50,[8],> 122 µM (inactive)
O=C(Nc1ccccc1)c1oc2ccccc2c1NC(=O)C1CC1,IC50,[9],35.9 µM (inactive)
same,IC50,Steroidogenic factor 1,35.9 µM (inactive)
same,IC50,[10],35.9 µM (inactive)
C[N+]1=C(/C=C/Nc2ccccc2)C(C)(C)c2ccccc21,IC50,Protein Wnt-3a [11],50 µM (inactive)
same,IC50,[12],17.4 µM (active)
COc1ccc(C(=O)/C=C/C(=O)N(CC(=O)NC2CCCCC2)Cc2cccs2)c(O)c1,AC50,[13],5.53 µM (active)
same,Absolute IC50 (XBP1),X-box-binding protein 1,10 µM
same,AC50,[14],2.98 µM (active)
same,IC50,[15],4.66 µM (active)
same,IC50,Beta Lactamase,24.7 µM (inactive)
COc1ccc2cc(C(=O)N3CCN(c4cccc(C)c4C)CC3)[nH]c2c1,IC50,Beta-galactosidase,> 80 µM (inactive)
CCCCCCCCCC(=O)NO,IC50,[16],27 µM (inactive)
Cc1cc(C)c2nc3sc(=Cc4ccc(-c5ccccc5C(=O)O)o4)c(=O)n3c2c1,IC50,[17],> 66.6 µM (inactive)
same,IC50,[18],26.5 µM (inactive)
same,IC50,[19],5.88 µM (active)
same,IC50,[20],62.9 µM (inactive)
Cc1ccc(S(=O)(=O)Nc2ccc3c(c2)CC(=O)N([C@H](C)CO)C[C@@H](C)[C@@H](CN(C)Cc2ccc(Cl)c(Cl)c2)O3)cc1,AC50,[21],9.47 µM (active)
same,AC50,[22],3.29 µM (active)
O=C(Nc1cc(N2CCCCC2)ncn1)c1cccc(F)c1,IC50,Protein Wnt-3a [23],> 21.8 µM (inactive)
C[C@H]1CN([C@@H](C)CO)C(=O)c2cccc(NC(=O)c3ccncc3)c2O[C@@H]1CN(C)Cc1ccc(C(=O)Nc2ccccc2N)cc1,IC50,[24],> 20 µM (inactive)
NC(=O)N/N=C/c1ccc(N2CCOCC2)s1,IC50,Large T antigen,13.8 µM (active)
same,IC50,[25],9.07 µM (active)
same,IC50,[26],11.1 µM (active)
same,IC50,[27],40.4 µM (active)
